From patent US12692264B2, “Pyrimidine or pyridine derivative, preparation method therefor, and application thereof in pharmacy” (ABBISKO THERAPEUTICS CO., LTD., priority 2021, dated 2026)

Tests used:
Assay type in all cases: cell-based
[1] = target: Ba/F3 EGFR-V769_D770insASV (Homo sapiens, UniProt P00533, DUP767-769, cells depend on it); test: Cell proliferation study (CellTiter-Glo, 72 hrs), Ba/F3 EGFR-V769_D770insASV; settings: CTG, * = average of multiple measurements, read-out: Ba/F3 EGFR-V769_D770insASV IC50
Description: (§1) (I) Reagents and Materials
(§2) • Fetal bovine serum FBS (GBICO, Cat #10099-141); • CellTiter-Glo® luminescent cell viability assay kit (Promega, Cat #G7572); • Black transparent flat-bottom 96-well plate (Corning®, Cat #3603). (II) Instruments • SpectraMax multi-label microplate reader MD, 2104-0010A; • Carbon dioxide incubator, Thermo Scientific 3100 series; • Biological safety cabinet, Thermo Scientific, 1300 series model A2; • Inverted microscope, Olympus, CKX41SF; • Siemens refrigerator KK25E76T1. (III) Cell Lines and Culture Conditions
(§3) (IV) Experimental Procedures 1. Cell Culture and Inoculation: • (1) Cells in the logarithmic growth phase were harvested and counted using a […]. The cell viability was determined by the trypan blue dye exclusion method to ensure cell viability above 90%. • (2) The cell concentration was adjusted to reach a desired final density; 90 μL of cell suspension was added to a 96-well plate. • (3) The cells were incubated overnight in the 96-well plate at 37° C., 5% CO2 and with 95% humidity. 2. T0 Benchmark Data: • (1) 10 μL of PBS was added to each well of the TO plate containing the cells. • (2) The CTG reagent was thawed and the cell plate was equilibrated to room temperature for 30 min. • (3) An equal volume of CTG solution was added to each well. • (4) The cells were lysed by shaking on an orbital shaker for 5 min. • (5) The cell plate was left to stand at room temperature for 20 min to stabilize the fluorescence signal. • (6) The fluorescence signal values of TO were read. 3. Dilution and Addition of Compounds • (1) According to the compound information table, a corresponding volume of DMSO was added to the corresponding compound powder to prepare a 10 mM stock solution. • (2) A 1000-fold, 3.16-fold-diluted compound solution was prepared. • (3) The 1000× diluted compound solution was diluted 100-fold with PBS to prepare a 10-fold compound solution with a maximum concentration of 10 μM, including 9 concentrations, with 3.16-fold dilution, and 10 μL of the medicament solution was added to each well of the 96-well plate to seed the cells. Triplicate wells were set for each compound concentration, with a final concentration of DMSO being 0.1%. • (4) The cells were placed in the 96-well plate containing the medicament at 37° C., 5% CO2 and with 95% humidity, and cultured for 72 hrs before CTG analysis. 4. Fluorescence Signal Reading • (1) The CTG reagent was thawed and the cell plate was equilibrated to room temperature for 30 min. • (2) An equal volume of CTG solution was added to each well. • (3) The cells were lysed by shaking on an orbital shaker for 5 min. • (4) The cell plate was left to stand at room temperature for 20 min to stabilize the fluorescence signal. • (5) The fluorescence values were read. 5. Data Processing
(§4) Data were analyzed using GraphPad Prism 7.0 software and fitted data were regressed using non-linear S-curves to obtain dose-response curves from which IC50 values (in nM) were calculated.

A431 (EGFR-WT) = test: Cell proliferation study (CellTiter-Glo, 72 hrs), A431; settings: Homo sapiens, A-431, A431 cells, CTG, * = average of multiple measurements
Description: as §1, §2, §3, §4

[2] = target: Ba/F3 EGFR-D770-N771ins_SVD (Homo sapiens, UniProt P00533, DUP768-770, cells depend on it); test: Cell proliferation study (CellTiter-Glo, 72 hrs), Ba/F3 EGFR-D770-N771ins_SVD; settings: CTG, * = average of multiple measurements, read-out: Ba/F3 EGFR-D770-N771ins_SVD IC50
Description: as §1, §2, §3, §4

Ba/F3 EGFR-V769_D770insASV, sequence (P00533 with tags, fused parts or gaps DUP767-769): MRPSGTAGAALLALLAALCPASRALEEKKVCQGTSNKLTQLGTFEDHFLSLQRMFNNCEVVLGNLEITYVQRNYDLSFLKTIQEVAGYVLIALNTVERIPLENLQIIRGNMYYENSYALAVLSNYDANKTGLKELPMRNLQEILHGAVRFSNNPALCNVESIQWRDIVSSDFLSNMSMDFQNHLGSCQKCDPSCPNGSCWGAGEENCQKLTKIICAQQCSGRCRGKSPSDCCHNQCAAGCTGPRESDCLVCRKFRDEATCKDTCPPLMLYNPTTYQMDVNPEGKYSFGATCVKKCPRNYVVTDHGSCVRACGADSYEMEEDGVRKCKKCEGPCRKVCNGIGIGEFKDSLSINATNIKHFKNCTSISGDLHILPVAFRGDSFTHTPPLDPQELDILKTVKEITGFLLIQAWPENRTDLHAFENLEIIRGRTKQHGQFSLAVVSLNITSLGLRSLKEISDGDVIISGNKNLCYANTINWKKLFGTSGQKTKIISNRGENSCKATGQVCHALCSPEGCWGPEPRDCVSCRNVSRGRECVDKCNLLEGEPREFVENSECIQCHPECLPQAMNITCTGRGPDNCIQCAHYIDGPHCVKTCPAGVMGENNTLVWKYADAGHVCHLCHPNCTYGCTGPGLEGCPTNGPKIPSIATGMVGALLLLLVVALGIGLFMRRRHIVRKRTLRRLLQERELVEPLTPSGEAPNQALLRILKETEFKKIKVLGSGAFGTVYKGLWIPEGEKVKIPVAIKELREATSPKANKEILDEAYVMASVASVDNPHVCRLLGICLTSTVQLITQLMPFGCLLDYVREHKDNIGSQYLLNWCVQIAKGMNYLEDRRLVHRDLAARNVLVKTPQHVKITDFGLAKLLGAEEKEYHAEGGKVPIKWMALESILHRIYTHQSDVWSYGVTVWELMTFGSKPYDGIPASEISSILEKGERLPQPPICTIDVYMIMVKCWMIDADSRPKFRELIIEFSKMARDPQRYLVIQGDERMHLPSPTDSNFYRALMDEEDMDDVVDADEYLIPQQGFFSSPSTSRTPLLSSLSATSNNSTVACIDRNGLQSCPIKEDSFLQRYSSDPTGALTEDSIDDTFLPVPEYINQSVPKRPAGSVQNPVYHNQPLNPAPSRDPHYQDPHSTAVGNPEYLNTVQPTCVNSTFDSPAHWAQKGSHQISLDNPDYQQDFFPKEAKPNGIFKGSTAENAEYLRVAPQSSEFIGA
Ba/F3 EGFR-D770-N771ins_SVD, sequence (P00533 with tags, fused parts or gaps DUP768-770): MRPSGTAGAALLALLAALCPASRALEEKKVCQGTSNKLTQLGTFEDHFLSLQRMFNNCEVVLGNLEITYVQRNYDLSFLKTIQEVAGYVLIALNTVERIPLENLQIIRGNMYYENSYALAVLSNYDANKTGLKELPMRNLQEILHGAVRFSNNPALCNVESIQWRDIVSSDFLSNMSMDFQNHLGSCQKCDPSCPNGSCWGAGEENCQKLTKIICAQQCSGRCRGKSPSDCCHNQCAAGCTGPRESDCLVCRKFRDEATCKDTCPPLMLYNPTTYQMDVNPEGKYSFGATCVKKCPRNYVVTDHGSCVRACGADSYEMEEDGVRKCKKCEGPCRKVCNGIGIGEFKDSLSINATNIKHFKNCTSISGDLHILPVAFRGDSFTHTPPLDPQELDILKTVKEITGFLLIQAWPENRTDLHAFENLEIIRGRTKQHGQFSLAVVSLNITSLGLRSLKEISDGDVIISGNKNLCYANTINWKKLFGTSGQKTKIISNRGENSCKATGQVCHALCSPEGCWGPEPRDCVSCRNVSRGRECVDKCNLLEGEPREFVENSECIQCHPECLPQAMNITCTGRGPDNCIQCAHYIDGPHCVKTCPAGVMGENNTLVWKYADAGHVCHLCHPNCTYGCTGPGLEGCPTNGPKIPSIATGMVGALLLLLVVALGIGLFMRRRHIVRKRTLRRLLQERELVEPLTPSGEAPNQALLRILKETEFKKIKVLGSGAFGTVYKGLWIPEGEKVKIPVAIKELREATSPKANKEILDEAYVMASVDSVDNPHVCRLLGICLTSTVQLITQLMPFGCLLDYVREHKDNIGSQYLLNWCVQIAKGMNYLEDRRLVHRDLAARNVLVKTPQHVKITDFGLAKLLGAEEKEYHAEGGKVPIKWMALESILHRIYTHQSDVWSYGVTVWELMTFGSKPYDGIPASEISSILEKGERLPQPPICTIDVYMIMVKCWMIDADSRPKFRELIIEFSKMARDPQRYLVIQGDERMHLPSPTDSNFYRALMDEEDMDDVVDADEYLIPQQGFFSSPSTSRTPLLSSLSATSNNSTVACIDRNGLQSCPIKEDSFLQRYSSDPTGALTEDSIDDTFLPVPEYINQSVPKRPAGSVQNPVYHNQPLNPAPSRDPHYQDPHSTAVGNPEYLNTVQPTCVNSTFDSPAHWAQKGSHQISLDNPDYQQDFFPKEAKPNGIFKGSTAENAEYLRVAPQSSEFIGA

| GI50 [1] [nM] | IC50 (A431 (EGFR-WT)) [nM] | GI50 [2] [nM] | SMILES |
| --- | --- | --- | --- |
| 12.6 | 220 | 12 | C=CC(=O)Nc1cc(Nc2ncc(C(=O)OC(C)C)c(N3CC(C)(C)c4nc(C#CC)ccc43)n2)c(OC)cc1N1C[C@@H](F)C[C@@H]1CN(C)C [Example 84, isopropyl 2-((5-acrylamido-4-((2R,4S)-2-((di-methylamino)methyl)-4-fluoro-pyrrolidin-1-yl)-2-methoxy-phenyl)amino)-4-(3,3-dimethyl-5-(prop-1-yn-1-yl)-2,3-dihydro-1H-pyrrolo[3,2-b]pyridin-1-yl)pyrimidine-5-carboxylate] |
| 33.1 | 371 | 23.2 | C=CC(=O)Nc1cc(Nc2ncc(C(=O)OC(C)C)c(N3CC(C)(C)c4ncccc43)n2)c(OC(F)F)cc1N(C)CCN(C)C [Example 3, isopropyl 2-((5-acrylamido-2-(difluoromethoxy)-4-((2-(dimethylamino)ethyl)(methyl)ami-no)phenyl)amino)-4-(3,3-dimethyl-2,3-dibydro-1H-pyrrolo[3,2-b]pyridin-1-yl)pyrimidine-5-carboxylate] |
| 12.9 | 76 | 11.2 | [2H]C1([2H])N(c2nc(Nc3cc(NC(=O)C=C)c(N4C[C@@H](F)C[C@@H]4CN(C)C)cc3OC)ncc2C(=O)OC(C)C)c2ccc(C)nc2C1(C)C [Example 82, isopropyl 2-((5-acrylamido-4-((2R,4S)-2-((di-methylamino)methyl)-4-fluoro-pyrrolidin-1-yl)-2-methoxy-phenyl)amino)-4-(3,3,5-trimethyl-2,3-dihydro-1H-pyrrolo[3,2-b]pyridin-1-yl-2,2-d2)pyrimidine-5-carboxylate] |
| 35.1 | 627 | 12.4 | C=CC(=O)Nc1cc(Nc2ncc(C(=O)OC(C)C)c(N3CC4(CCC4)c4ncccc43)n2)c(OC(F)F)cc1N(C)CCN(C)C [Example 6, isopropyl 2-((5-acrylamido-2-(difluoromethoxy)-4-((2-(dimethylamino)ethyl)(methyl)ami-no)phenyl)amino)-4-(spiro(cyclo-butane-1,3′-pyrrolo[3,2-b]pyridin)-1′(2′H)-yl)pyrimidine-5-carboxylate] |
| 33.5 | 270 | 20.5 | C=CC(=O)Nc1cc(Nc2ncc(C(=O)OC(C)C)c(N3CC(C)(C)c4nc(C)ccc43)n2)c(OC)nc1N(C)C[C@@H]1CCCN1C [Example 46, isopropyl (S)-2-((5-acrylamido-2-methoxy-6-(methyl((1-methylpyrrolidin-2-yl)methyl)amino)pyridin-3-yl)amino)-4-(3,3,5-trimethyl-2,3-dihydro-1H-pyrrolo[3,2-b]pyridin-1-yl)pyrimidine-5-carboxylate] |
| 29.3 | 128 | 9 | C=CC(=O)Nc1cc(Nc2ncc(C(=O)OC(C)C)c(N3CC(C)(C)c4nc(C)ccc43)n2)c(OC(F)F)cc1N(C)CCN(C)C [Example 81, isopropyl 2-((5-acrylamido-2-(difluoromethoxy)-4-((2-(dimethylamino)eth-yl)(methyl)amino)phenyl)amino)-4-(3,3,5-trimethyl-2,3-dihydro-1H-pyrrolo[3,2-b]pyridin-1-yl)pyrimidine-5-carboxylate] |
| 39.4 | 278 | 36.9 | C=CC(=O)Nc1cc(Nc2ncc(C(=O)OC(C)C)c(N3CC4(CCC4)c4nc(-c5cnn(C)c5)ccc43)n2)c(OC)cc1N(C)CCN(C)C [Example 10, isopropyl 2-((5-acrylamido-4-((2-(dimethylami-no)ethyl)(methyl)amino)-2-methoxy-phenyl)amino)-4-(5′-(1-methyl-1H-pyrazol-4-yl)spiro(cyclobutane-1,3′-pyrrolo[3,2-b]pyridin)-1′(2′H)-yl)pyrimidine-5-carboxylate] |
| 36.9 | 599 | 18.5 | C=CC(=O)Nc1cc(Nc2ncc(C(=O)OC(C)C)c(N3CC(C)(C)c4nc(C)ccc43)n2)c(OC)cc1N1CC[C@@H](N(C)C)C1 [Example 12, isopropyl (R)-2-((5-acrylamido-4-(3-(dimethyl-amino)pyrrolidin-1-yl)-2-methoxy-phenyl)amino)-4-(3,3,5-trimethyl-2,3-dihydro-1H-pyrrolo[3,2-b]pyridin-1-yl)pyrimidine-5-carboxylate] |
| – | 213 | 36.3 | C=CC(=O)Nc1cc(Nc2ncc(C(=O)OC(C)C)c(N3CC(C)(C)c4nc(C)ccc43)n2)c(OC)cc1N(C)C[C@@H]1CCCN1C [Example 41, isopropyl (S)-2-((5-acrylamido-2-methoxy-4-(methyl((1-methylpyrrolidin-2-yl)methyl)amino)phenyl)amino)-4-(3,3,5-trimethyl-2,3-dihydro-1H-pyrrolo[3,2-b]pyridin-1-yl)pyrimidine-5-carboxylate] |
| – | 580 | 14.1 | [2H]C([2H])([2H])Oc1cc(N(C)CCN(C)C)c(NC(=O)C=C)cc1Nc1ncc(C(=O)OC(C)C)c(N2CC(C)(C)c3nc(C)ccc32)n1 [Example 27, isopropyl 2-((5-acrylamido-4-((2-(dimethylami-no)ethyl)(methyl)amino)-2-(methoxy-d3)phenyl)amino)-4-(3,3,5-trimethyl-2,3-dihydro-1H-pyrrolo[3,2-b]pyridin-1-yl)pyrimidine-5-carboxylate] |
| – | 163 | 59.5 | C=CC(=O)Nc1cc(Nc2ncc(C(=O)OC(C)C)c(N3CC(C)(C)c4nc(C5CC5)ccc43)n2)c(OC)cc1N(C)CCN(C)C [Example 4, isopropyl 2-((5-acrylamido-4-((2-(dimethylami-no)ethyl)(methyl)amino)-2-methoxy-phenyl)amino)-4-(5-cyclopropyl-3,3-dimethyl-2,3-dihydro-1H-pyrrolo[3,2-b]pyridin-1-yl)pyrimidine-5-carboxylate] |
| 35.2 | – | 26.9 | [2H]C([2H])([2H])N(CCN(C([2H])([2H])[2H])C([2H])([2H])[2H])c1cc(OC)c(Nc2ncc(C(=O)OC(C)C)c(N3CC4(CC4)c4nc(C)ccc43)n2)cc1NC(=O)C=C [Example 69, isopropyl 2-((5-acrylamido-4-((2-(bis(methyl-d3)amino)ethyl)(methyl-d3)amino)-2-methoxyphenyl)amino)-4-(5′-methylspiro(cyclopropane-1,3′-pyrrolo[3,2-b]pyridin)-1′(2′H)-yl)pyrimidine-5-carboxylate] |
| – | 1070 | 36 | C=CC(=O)Nc1cc(Nc2ncc(C(=O)OC(C)C)c(N3CC(C)(C)c4nc(C)ccc43)n2)c(OC)nc1N1CC[C@@H](N(C)C)C1 [Example 35, isopropyl (R)-2-((5-acrylamido-6-(3-(dimethyl-amino)pyrrolidin-1-yl)-2-methoxy-pyridin-3-yl)amino)-4-(3,3,5-trimethyl-2,3-dihydro-1H-pyrrolo[3,2-b]pyridin-1-yl)pyrimidine-5-carboxylate] |
| 27.2 | – | 16.9 | C=CC(=O)Nc1cc(Nc2ncc(C(=O)OC(C)C)c(N3CC(C)(C)c4nc(C)ccc43)n2)c(OC)cc1N(C)CCN1CCCC1 [Example 66, isopropyl 2-((5-acrylamido-2-methoxy-4-(methyl(2-(pyrrolidin-1-yl)ethyl)amino)phenyl)amino)-4-(3,3,5-trimethyl-2,3-dihydro-1H-pyrrolo[3,2-b]pyridin-1-yl)pyrimidine-5-carboxylate] |
